For the test, the target named is T1, hMC2 receptor (crude hMC2R membranes from CRE-bla-CHO-K1 cells stably expressing hMC2 receptor and hMRAP accessory protein) (Homo sapiens, UniProt Q01718).
T1 construct: crude membrane fractions
T1 sequence (Q01718 whole entry): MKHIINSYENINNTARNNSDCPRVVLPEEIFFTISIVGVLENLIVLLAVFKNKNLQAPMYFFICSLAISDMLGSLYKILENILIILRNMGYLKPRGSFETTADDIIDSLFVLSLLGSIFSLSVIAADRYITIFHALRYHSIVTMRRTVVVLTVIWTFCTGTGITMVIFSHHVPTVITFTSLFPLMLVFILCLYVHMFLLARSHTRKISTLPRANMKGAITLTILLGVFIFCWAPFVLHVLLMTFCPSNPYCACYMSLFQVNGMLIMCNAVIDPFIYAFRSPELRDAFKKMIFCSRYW
T1 sequence (Q8TCY5 whole entry partner): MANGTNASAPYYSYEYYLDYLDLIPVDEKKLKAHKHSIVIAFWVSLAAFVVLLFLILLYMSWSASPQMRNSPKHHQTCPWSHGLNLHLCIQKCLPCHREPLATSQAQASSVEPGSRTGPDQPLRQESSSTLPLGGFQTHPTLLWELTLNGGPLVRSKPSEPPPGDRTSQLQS
Put plainly: hMC2 membrane binding assay ([125I]ACTH (1-39) Tyr23, SPA). As to conditions: displacement of 0.2 nM [125I]ACTH (1-39) Tyr23 from hMC2R membranes, 1.5 hours at room temperature; read-out: MC2R binding potency. As for the experimental part:
Crude membrane fractions are prepared from CRE-bla-CHO-K1 cells stably expressing hMC2 receptor and hMRAP accessory protein (Thermo Fisher). The cells are grown to 85-100% confluence on standard tissue culture dishes in GlutaMax DMEM growth media (Gibco) with following additives: 10% dialyzed FBS (Gemini), 0.1 mM NEAA (Gibco), 25 mM HEPES (Gibco), 5 μg/mL blasticidin (Goldbio), 100 μg/mL zeocin (Invitrogen), 600 μg/mL hygromycin (Goldbio). To prepare membranes, cells are scraped and collected in 1× Dulbecco's phosphate buffered saline (Corning) and then pelleted at 1000 RPM's. The cell pellet is reconstituted in membrane preparation buffer (20 mM HEPES, 6 mM MgCl2 and 1 mM EGTA, protease inhibitor tablets (Pierce) adjusted to pH 7.4), homogenized using a dounce homogenizer, and the resulting membrane fraction is pelleted by centrifugation at 12,000 RPM's. The membrane pellet is resuspended in membrane preparation buffer, snap freezed and stored at −80° C. for later use.
Binding Assay for hMC2 Antagonists Protocol:
The hMC2 membrane binding assay utilizes the following components: radiolabel [^125I]ACTH (1-39) Tyr23 (PerkinElmer), wheatgerm agglutinin coated PVT SPA beads (PerkinElmer), crude hMC2R membranes, and compounds. Briefly hMC2R membranes are incubated with SPA beads in binding assay buffer (50 mM HEPES, 5 mM MgCl2, 1 mM CaCl2), 0.20% BSA, protease inhibitor tablets (Pierce) adjusted to pH7.4) prior to assay initiation. […] Assay plates are read using a Top Count NXT and Ki values for compounds are determined using a GraphPad Prism 6 non-linear regression analysis.
With `CN1CC[C@@H](NC(=O)C2(c3ccc(-c4ccccc4F)nc3)CCN(c3ccc(C(F)(F)F)cc3C#N)CC2)C1` [Compound 1-74, 1-[2-cyano-4-(trifluoromethyl)phenyl]-4-[6-(2-fluorophenyl)pyridin-3-yl]-N-[(3R)-1-methylpyrrolidin-3-yl]piperidine-4-carboxamide], the Ki was less than 10 nM.

As to `CNCCNC(=O)C1(c2cnc(-c3ccccc3OC)c(F)c2)CCN(c2ccc(C(F)(F)F)cc2F)CC1` [Compound 1-293, 1-[2-fluoro-4-(trifluoromethyl)phenyl]-4-[5-fluoro-6-(2-methoxyphenyl)pyridin-3-yl]-N-[2-(methylamino)ethyl]piperidine-4-carboxamide], the Ki was less than 10 nM. The result for `CN1CC[C@H](NC(=O)C2(c3ccc(-c4ncoc4C4CC4)nc3)CCN(c3ccc(C(F)(F)F)cc3C#N)CC2)C1` [Compound 1-182, 1-[2-cyano-4-(trifluoromethyl)phenyl]-4-[6-(5-cyclopropyl-1,3-oxazol-4-yl)pyridin-3-yl]-N-[(3S)-1-methylpyrrolidin-3-yl]piperidine-4-carboxamide] reads 10 to 100 nM; that for `Cn1cccc1-c1ccc(C2(C(=O)N[C@H]3C[C@@H](N(C)C)C3)CCN(c3ccc(C(F)(F)F)cc3C#N)CC2)cn1` [Compound 1-239, 1-[2-cyano-4-(trifluoromethyl)phenyl]-4-[6-(1-methyl-1H-pyrrol-2-yl)pyridin-3-yl]-N-[(1S,3S)-3-(dimethylamino)cyclobutyl]piperidine-4-carboxamide], 10 to 100 nM. As to `COc1ccccc1-c1ccc(C2(C(=O)N[C@@H]3CCN(C)C3)CCN(c3ccc(C(F)(F)F)cc3C#N)CC2)cn1` [Compound 1-52, 1-[2-cyano-4-(trifluoromethyl)phenyl]-4-[6-(2-methoxyphenyl)pyridin-3-yl]-N-[(3R)-1-methylpyrrolidin-3-yl]piperidine-4-carboxamide], the Ki is less than 10 nM.

With `COc1ccccc1-c1ncc(C2(NC(=O)CCN(C)C)CCN(c3ccc(C(F)(F)F)cc3C#N)CC2)cc1F` [Compound 2-62, N-{1-[2-cyano-4-(trifluoromethyl)phenyl]-4-[5-fluoro-6-(2-methoxyphenyl)pyridin-3-yl]piperidin-4-yl}-3-(dimethylamino)propanamide], the Ki is less than 10 nM. The result for `COc1ccccc1-c1ncc(C2(C(=O)N[C@@H]3CCN(C)C3)CCN(c3ccc(C(F)(F)F)cc3C#N)CC2)cc1F` [Compound 1-126, 1-[2-cyano-4-(trifluoromethyl)phenyl]-4-[5-fluoro-6-(2-methoxyphenyl)pyridin-3-yl]-N-[(3R)-1-methylpyrrolidin-3-yl]piperidine-4-carboxamide] reads less than 10 nM.

Turning to `CCOc1ncccc1-c1ccc(C2(C(=O)N[C@H]3CCN(C)C3)CCN(c3ccc(C#N)cc3C(F)(F)F)CC2)cn1` [Compound 1-38, 1-[4-cyano-2-(trifluoromethyl)phenyl]-4-{2′-ethoxy-[2,3′-bipyridin]-5-yl}-N-[(3S)-1-methylpyrrolidin-3-yl]piperidine-4-carboxamide], the Ki is less than 10 nM. As for `CCOc1ncccc1-c1ncc(C2(C(=O)NCCNC)CCN(c3ccc(C(F)(F)F)cc3C#N)CC2)cc1F` [Compound 1-311, 1-[2-cyano-4-(trifluoromethyl)phenyl]-4-{2′-ethoxy-3-fluoro-[2,3′-bipyridin]-5-yl}-N-[2-(methylamino)ethyl]piperidine-4-carboxamide], the Ki is less than 10 nM. The result for `COc1ccccc1-c1ccc(C2(NC(=O)[C@@H]3CCN(C)C3)CCN(c3ccc(C(F)(F)F)cc3C#N)CC2)cn1` [Compound 2-60, (3R)—N-{1-[2-cyano-4-(trifluoromethyl)phenyl]-4-[6-(2-methoxyphenyl)pyridin-3-yl]piperidin-4-yl}-1-methylpyrrolidine-3-carboxamide] reads less than 10 nM. To `CCOc1ncccc1-c1ccc(C2(C(=O)NCCN)CCN(c3ccc(C(F)(F)F)cc3C#N)CC2)cn1` [Compound 1-13, N-(2-aminoethyl)-1-[2-cyano-4-(trifluoromethyl)phenyl]-4-{2′-ethoxy-[2,3′-bipyridin]-5-yl}piperidine-4-carboxamide] belongs less than 10 nM; to `C[C@@H](CN(C)C)NC(=O)C1(c2ccc(-c3cccn3C)nc2)CCN(c2ccc(C(F)(F)F)cc2F)CC1` [Compound 1-297, N-[(2S)-1-(dimethylamino)propan-2-yl]-1-[2-fluoro-4-(trifluoromethyl)phenyl]-4-[6-(1-methyl-1H-pyrrol-2-yl)pyridin-3-yl]piperidine-4-carboxamide], less than 10 nM. The result for `COc1sccc1-c1ccc(C2(C(=O)N[C@@H]3CCN(C)C3)CCN(c3ccc(C(F)(F)F)cc3C#N)CC2)cn1` [Compound 1-83, 1-[2-cyano-4-(trifluoromethyl)phenyl]-4-[6-(2-methoxythiophen-3-yl)pyridin-3-yl]-N-[(3R)-1-methylpyrrolidin-3-yl]piperidine-4-carboxamide] reads less than 10 nM. Consider `CCOc1ccccc1-c1ccc(C2(C(=O)N[C@H]3CCN(C)C3)CCN(c3ccc(Cl)cc3C#N)CC2)cn1` [Compound 1-90, 1-(4-chloro-2-cyanophenyl)-4-[6-(2-ethoxyphenyl)pyridin-3-yl]-N-[(3S)-1-methylpyrrolidin-3-yl]piperidine-4-carboxamide], for which the Ki was less than 10 nM.

As to `CN1CC[C@@H](NC(=O)C2(c3ccc(-c4cccc5c4OC(F)(F)O5)nc3)CCN(c3ccc(C(F)(F)F)cc3C#N)CC2)C1` [Compound 1-67, 1-[2-cyano-4-(trifluoromethyl)phenyl]-4-[6-(2,2-difluoro-2H-1,3-benzodioxol-4-yl)pyridin-3-yl]-N-[(3R)-1-methylpyrrolidin-3-yl]piperidine-4-carboxamide], the Ki fell in the range of 10 to 100 nM. As to `CN1CC[C@H](NC(=O)C2(c3ccc(-c4ccccc4C(F)F)nc3)CCN(c3ccc(C(F)(F)F)cc3C#N)CC2)C1` [Compound 1-151, 1-[2-cyano-4-(trifluoromethyl)phenyl]-4-{6-[2-(difluoromethyl)phenyl]pyridin-3-yl}-N-[(3S)-1-methylpyrrolidin-3-yl]piperidine-4-carboxamide], the Ki was less than 10 nM. To `CCOc1ncccc1-c1ncc(C2(C(=O)N[C@@H](C)CNC)CCN(c3ccc(Cl)cc3C#N)CC2)cc1F` [Compound 1-323, 1-(4-chloro-2-cyanophenyl)-4-{2′-ethoxy-3-fluoro-[2,3′-bipyridin]-5-yl}-N-[(2S)-1-(methylamino)propan-2-yl]piperidine-4-carboxamide] belongs less than 10 nM; to `CCOc1ccccc1-c1ccc(C2(NC(=O)[C@H]3CCN(C)C3)CCN(c3ccc(C(F)(F)F)cc3C#N)CC2)cn1` [Compound 2-27, (3S)—N-{1-[2-cyano-4-(trifluoromethyl)phenyl]-4-[6-(2-ethoxyphenyl)pyridin-3-yl]piperidin-4-yl}-1-methylpyrrolidine-3-carboxamide], less than 10 nM; to `COc1ccccc1-c1ncc(C2(NC(=O)O[C@@H]3CCN(C)C3)CCN(c3ccc(C(F)(F)F)cc3C#N)CC2)cc1F` [Compound 2-50, (3R)-1-methylpyrrolidin-3-yl N-{1-[2-cyano-4-(trifluoromethyl)phenyl]-4-[5-fluoro-6-(2-methoxyphenyl)pyridin-3-yl]piperidin-4-yl}carbamate], less than 10 nM. The result for `CCOc1ncccc1-c1ccc(C2(C(=O)NC[C@H](N)CO)CCN(c3ccc(C(F)(F)F)cc3C#N)CC2)cn1` [Compound 1-28, N-[(2S)-2-amino-3-hydroxypropyl]-1-[2-cyano-4-(trifluoromethyl)phenyl]-4-{2′-ethoxy-[2,3′-bipyridin]-5-yl}piperidine-4-carboxamide] reads less than 10 nM. For `CN1CC[C@@H](NC(=O)C2(c3ccc(-c4ccccc4C(F)(F)F)nc3)CCN(c3ccc(C(F)(F)F)cc3C#N)CC2)C1` [Compound 1-77, 1-[2-cyano-4-(trifluoromethyl)phenyl]-N-[(3R)-1-methylpyrrolidin-3-yl]-4-{6-[2-(trifluoromethyl)phenyl]pyridin-3-yl}piperidine-4-carboxamide], the Ki was less than 10 nM. To `CCOc1ncccc1-c1ncc(C2(C(=O)NCCN(C)C)CCN(c3ccc(C(F)(F)F)cc3C#N)CC2)cc1F` [Compound 1-308, 1-[2-cyano-4-(trifluoromethyl)phenyl]-N-[2-(dimethylamino)ethyl]-4-{2′-ethoxy-3-fluoro-[2,3′-bipyridin]-5-yl}piperidine-4-carboxamide] belongs less than 10 nM. Take `CCOc1ccccc1-c1ccc(C2(NC(=O)CN(C)C)CCN(c3ccc(Cl)cc3C#N)CC2)cn1` [Compound 2-31, N-[1-(4-chloro-2-cyanophenyl)-4-[6-(2-ethoxyphenyl)pyridin-3-yl]piperidin-4-yl]-2-(dimethylamino)acetamide]: the Ki is less than 10 nM. Take `CCOc1ncccc1-c1ccc(C2(NCCNC)CCN(c3ccc(C(F)(F)F)cc3C#N)CC2)cn1` [Compound 2-15, 2-(4-{2′-ethoxy-[2,3′-bipyridin]-5-yl}-4-{[2-(methylamino)ethyl]amino}piperidin-1-yl)-5-(trifluoromethyl)benzonitrile]: the Ki lay within 10 to 100 nM.

The values are drawn from US12492181B2, “Gem-disubstituted piperidine melanocortin subtype-2 receptor (MC2R) antagonists and uses thereof” (Crinetics Pharmaceuticals, Inc., priority 2019, dated 2025).
